Laboratory results published in patent publication US3993754A (priority 1974, dated 1976).
Like-named read-outs stand apart in the source and are kept apart here. *1 amine or outer side, *2 acyl side, *3 side chain or, on linkers, in order; H or OH if unused. Where a SMILES comes first, the peptide text is derived from it. Bridges are numbered along the chain shown (N, C = ends). Roman numbers before positions name the chains, in order. [ ]: non-standard residue; d: D form. Actinocin(9to1) = Cc1c2oc3c(C)ccc(C(=O)[*:1])c3nc-2c(C(=O)[*:2])c(N)c1=O; NMeV = CN[C@H](C(=O)O)C(C)C; Sar = CNCC(=O)O

Key:
[1] = mice
Protocol: Female CF No. 1 (Carworth Farms) mice, 3 months of age, weighing between 27 and 29 grams, were used in each instance in these experiments. For toxicity studies, groups of 15 or 20 mice were given actinomycin D at different levels, either in the nonencapsulated or in the liposome-encapsulated forms. Toxicity of actinomycin D was tested by both intravenous and intraperitoneal injection. Experiments were carried out to test the therapeutic efficacy of the encapsulated actinomycin D against Ehrlich ascites (E. A.) tumor cells in vivo. In Experiment I, mice recieved 20 × 10^6 E.A. cells by intraperitoneal injection. After 5 days, separate groups were treated with one of the following: (1) 0.4 ml of 8 mM calcium chloride, (2) nonencapsulated actinomycin D (0.75 mg/kg), or (3) liposome-encapsulated actinomycin D (0.75 mg/kg). In Experiment II, two groups of 10 mice were similarly inoculated. Treatment of one group was begun after 3 days with 0.5 mg/kg of encapsulated actinomycin D, followed by injection on 4 consecutive days with 0.25 mg/kg. All injections were given intraperitoneally, in a volume of 0.4 ml in Experiment I, 0.2 ml in Experiment II.

[2] = tested on: Ehrlich ascites (E. A.) tumor cells; assay: Therapeutic efficacy against Ehrlich ascites tumor cells in vivo (survival time); parameters: species or system mice; conditions: Experiment I: single i.p. treatment 0.75 mg/kg, 5 days after inoculation of 20 × 10^6 E.A. cells; control 7.4 ± 3.11 days
Protocol: Referring to FIG. 1, there is illustrated the therapeutic effect of liposome-encapsulated actinomycin D on the survival of mice bearing E.A. tumor following single treatments given at 5 days after inoculation of 20 × 10^6 E.A. cells. A control is represented by line 11 on the graph, liposome-encapsulated actinomycin D at 0.75 mg/kg represented by line 12 and nonencapsulated actinomycin D at 0.75 mg/kg represented by line 13.
Referring to FIG. 2, there is shown graphically the therapeutic effect of liposome-encapsulated actinomycin D on the survival of mice bearing E.A. tumor with multiple daily treatments starting at day 3 after inoculation with 20 × 10^6 E.A. cells. In FIG. 2, the control is represented by line 14, liposome-encapsulated actinomycin D, first dose 0.50 mg/kg followed by four consecutive injections of 0.25 mg/kg, is represented by line 15. As is readily apparent from the graph, the increase in survival time after mutliple injections of encapsulated actinomycin D was even more impressive: 7.3 ± 2.26 days for the control versus 17.6 ± 2.17 days for the encapsulated actinomycin D. All of the control animals died before the first death occurred in the treatment group. In a separate experiment, it was observed that injection of liposomes prepared with KCl instead of actinomycin D had no effect on survival time.

[3] = tested on: E.A. cells; assay: Light and electron microscopic examination of E.A. tumor cells after treatment; format: in vivo, mouse; conditions: 1 mg/kg (2 mg/kg in the first case), 1 hour to 5 days after treatment
Protocol: Electron microscopic studies of tissue cells were also conducted. For the electron microscopic studies, a mouse was inoculated with E.A. cells in the manner described above. Five days after the inoculation, liposomes containing actinomycin D at a concentration of 2 mg/kg were injected intraperitoneally. At intervals of 1, 6, 12 and 24 hours after the liposome injection, 0.2 ml of ascites fluid was aspirated from the mouse abdominal cavity with a syringe. The fluid was centrifuged and the pellet of E.A. cells was fixed and processed for examination in an electron microscope. […] Light and electron microscopic examination of E.A. tumor cells was also carried out 1 hour to 5 days after treatment with liposome-encapsulated and nonencapsulated actinomycin D at a dose of 1 mg/kg. […] There was an increase in lipid droplets, lyosomes and autophagic vacuoles and the ribosomes were clumped into distinct clusters. Fewer dividing cells were seen, at least after 24 hours post-treatment.

## Cc1c2oc3c(C)ccc(C(=O)N[C@@H]4C(=O)N[C@H](C(C)C)C(=O)N5CCC[C@H]5C(=O)N(C)CC(=O)N(C)[C@@H](C(C)C)C(=O)O[C@@H]4C)c3nc-2c(C(=O)N[C@@H]2C(=O)N[C@H](C(C)C)C(=O)N3CCC[C@H]3C(=O)N(C)CC(=O)N(C)[C@@H](C(C)C)C(=O)O[C@@H]2C)c(N)c1=O [actinomycin D] (I: T[dV]P[Sar][NMeV] / II: T[dV]P[Sar][NMeV]; ester I:1-I:C, II:1-II:C; linker I:N-II:N via Actinocin(9to1))
[1]; given intravenously
  LD50: 0.43 ± 0.04 mg/kg
[1]; intraperitoneal injection
  LD50: 0.59 ± 0.17 mg/kg
  survival of some of the decedents: ≤ 14 days
[1]; intravenous, 0.3 mg/kg
  average survival time of the decedents: 3.5 days
  decedents out of 20 injected: 8
[1]; intravenous, doses of 0.5 mg/kg and above
  time within which most of the deaths occurred: ≤ 24 h
[2]
  survival time after treatment: slightly, but not significantly, less than the controls
[3]
  morphological damage of E.A. cells: Significantly fewer E. A. cells were damaged
